For the assay, the target named is T1, Tyrosine-protein phosphatase non-receptor type 11 (Homo sapiens, UniProt Q06124).
T1 sequence (Q06124 whole entry): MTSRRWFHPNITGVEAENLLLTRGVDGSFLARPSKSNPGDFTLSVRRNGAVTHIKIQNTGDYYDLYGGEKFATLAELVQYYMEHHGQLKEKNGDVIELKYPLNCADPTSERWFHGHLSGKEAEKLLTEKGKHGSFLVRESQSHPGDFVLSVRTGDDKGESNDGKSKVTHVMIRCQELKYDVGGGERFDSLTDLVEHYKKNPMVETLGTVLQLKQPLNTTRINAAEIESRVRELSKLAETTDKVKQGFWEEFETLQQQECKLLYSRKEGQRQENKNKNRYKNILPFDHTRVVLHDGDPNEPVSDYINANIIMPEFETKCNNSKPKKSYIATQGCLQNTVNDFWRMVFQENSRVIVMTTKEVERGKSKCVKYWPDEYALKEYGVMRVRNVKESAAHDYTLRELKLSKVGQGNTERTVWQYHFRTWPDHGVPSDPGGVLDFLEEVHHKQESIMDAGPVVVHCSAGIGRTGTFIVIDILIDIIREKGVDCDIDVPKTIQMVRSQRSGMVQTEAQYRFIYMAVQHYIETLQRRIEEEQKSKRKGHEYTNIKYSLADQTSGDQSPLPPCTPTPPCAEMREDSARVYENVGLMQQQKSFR
Kind of assay: SHP2 Phosphatase Assay: IC50 values were determined at room temperature in 384-well black polystyrene plate, using a final reaction volume of 15 μl and the following assay buffer conditions: 60 mM Hepes (pH=7.2), 75 mM NaCl, 75 mM KCl, and 1 mM EDTA, 0.05% P-20, 5 mM dithiothreitol (DTT). Full length SHP2 enzyme (diluted to 0.1 nM in reaction buffer) were co-incubated with 1 uM IRS-1 peptide and 0.01 nM to 10 μM compounds of the disclosure for 60 min. The surrogate substrate DiFMUP (5 μL, […]) was added, and incubated at rt for 60 min. The reaction was then quenched by the addition of 5 μL of a 40 μM solution of bpV(Phen). The fluorescence signal was monitored using a microplate reader (Envision, Perkin-Elmer) using excitation and emission wavelengths of 360 nm and 450 nm, respectively. The inhibitor dose-response curves were analyzed using normalized IC50 regression curve fitting with control-based normalization.

The term IC50 denotes the concentration that gives 50% inhibition. Turning to `CC1(CN)CCN(c2ncc(Sc3cccc(NC(=O)c4c(O)nc5cnccn5c4=O)c3Cl)[nH]c2=O)CC1`, the IC50 is under 50 nM.
